Results from patent EP3868759A1, “2,3,5-SUBSTITUTED PYRROLO[2,3-B]PYRIDINES AS ERBB MODULATORS USEFUL FOR TREATING CANCER” (PearlRiver Bio GmbH, priority 2020, dated 2021).

Assays:
[1] = test system: Her2 Exon 20 InsYVMA Ba/F3; assay: CellTiter-Glo cell viability, Her2 Exon 20 InsYVMA Ba/F3; type: cell-based; conditions: Mus musculus, BaF3, 72 h, read-out: Her2 Exon 20 InsYVMA Ba/F3 CTG IC50
Procedure: (§1) The CellTiter-Glo Luminescent Cell Viability Assay (Promega) is a homogeneous method of determining the number of viable cells in culture. It is based on quantification of ATP, indicating the presence of metabolically active cells. Cells are seeded on day 1 at cell numbers that assure assay linearity and optimal signal intensity. After incubation for 24h in humidified chambers at 37°C and 5% CO2, compounds in DMSO are added at different concentrations. Cells are further incubated for 72 h at 37°C and 5% CO2. Cells treated with the compound vehicle DMSO are used as positive controls and cells treated with 10 µM Staurosporine serve as negative controls. At day 5 the CellTiter Glo Reagent is prepared according to the instructions of the kit (Promega Inc.): Reagent is mixed 1:1 with cell culture medium. Thereon, mixture and assay plates are equilibrated at room temperature for 20 min. Equal volumes of the reagent-medium-mixture is added to the volume of culture medium present in each well. The plates are mixed at ∼200 rpm for 2 minutes on an orbital shaker. The microplates are then incubated at room temperature for 10 minutes for stabilization of the luminescent signal. Following incubation the luminescence is recorded on a Victor microplate reader (Perkin Elmer) using a 200 ms integration time. The data is then analyzed with Excel using the XLFIT Plugin (dose response Fit 205) for IC50-determination. As quality control the Z'-factor is calculated from 16 positive and negative control values. Only assay results showing a Z'-factor ≥ 0.5 are used for further analysis.

[2] = test system: EGFR Exon 20 InsNPH Ba/F3; assay: CellTiter-Glo cell viability, EGFR Exon 20 InsNPH Ba/F3; type: cell-based; conditions: Mus musculus, BaF3, 72 h, read-out: EGFR Exon 20 InsNPH Ba/F3 CTG IC50
Procedure: as §1

[3] = biological target: T1, HER2 INS YVMA (Homo sapiens, UniProt P04626, INS775YVMA); assay: Lance Kinase Activity Assay, Her2 Exon 20 InsYVMA; conditions: biochemical Lance assay
T1 construct: purchased DPF
Procedure: This protocol describes how the Lance Kinase Activity Assay was performed to determine IC50 values of compounds of general formula (I) against HER2 INS YVMA. The principle behind this enzymatic assay is based upon the phosphorylation of the Ulight-peptide substrate. It is detected by using a specific EU-labeled anti-phospho peptide antibody. The binding of the Eu labeled anti-phospho peptide antibody to the phosphorylated ULight labeled peptide gives rise to a FRET-signal. Binding of an inhibitor to the kinase prevents phosphorylation of the Ulight-substrate, resulting in a loss of FRET. In table 2 is summarized the relevant information for the LANCE assay. Table 2: Reagents, stock concentrations and final assay concentrations for Her2 INS YVMA.
The compounds of general formula (I) summarized in Table 3 were serial diluted from a 10 mM DMSO stock solution 1:3 over 8 steps in a total volume of 20 µl. For every sample, 8 µl of kinase-substrate mix was transferred into a suitable assay plate (e.g. Corning #3673). Compound was added via pintool transfer (10nl/well) using a Biomek FX robot (BeckmanCoulter). Reaction was started by addition of 2µl ATP working solution and mixed using variomag teleshaker (Thermo Fischer Scientific). After 1 h incubation at room temperature the reaction was stopped with 10µl detection mix containing the Eu-labeled phosphospecific antibody and 10mM EDTA. After a second incubation period of 1 h at room temperature the FRET signal was measured at 340 nm excitation, 665 nm and 615 nm emission (for the ULight-substrate and Eu-AB, respectively) with an Envision spectrophotometer (Perkin Elmer, Waltham, MA, USA) with 50 µs delay and 300 µs integration time. IC50 values were determined from the sigmoidal dose response curves with the software Quattro Workflow (Quattro GmbH, Munich, Germany).

[4] = biological target: EGFR T790M L858R (Homo sapiens, UniProt P00533, L858R/T790M); assay: Lance assay, EGFR T790M L858R; conditions: biochemical Lance assay
[5] = test system: Cuto-17; assay: CellTiter-Glo cell viability, Cuto-17; type: cell-based; conditions: CUTO17, 72 h, read-out: Cuto-17 CTG IC50
Procedure: as §1

[6] = test system: A431; assay: CellTiter-Glo cell viability, A431; type: cell-based; conditions: Homo sapiens, A-431, 72 h, read-out: A431 CTG IC50
Procedure: as §1

[7] = test system: EGFR vIII Ba/F3; assay: CellTiter-Glo cell viability, EGFR vIII Ba/F3; type: cell-based; conditions: Mus musculus, BaF3, 72 h, read-out: EGFR vIII Ba/F3 CTG IC50 /
Procedure: as §1

[8] = test system: H1975; assay: CellTiter-Glo cell viability, H1975; type: cell-based; conditions: Homo sapiens, NCI-H1975, 72 h, read-out: H1975 CTG IC50
Procedure: as §1

[9] = biological target: EGFR wt (Homo sapiens, UniProt P00533); assay: Lance assay, EGFR wt; conditions: biochemical Lance assay
Chain of EGFR wt (P00533 25-1210): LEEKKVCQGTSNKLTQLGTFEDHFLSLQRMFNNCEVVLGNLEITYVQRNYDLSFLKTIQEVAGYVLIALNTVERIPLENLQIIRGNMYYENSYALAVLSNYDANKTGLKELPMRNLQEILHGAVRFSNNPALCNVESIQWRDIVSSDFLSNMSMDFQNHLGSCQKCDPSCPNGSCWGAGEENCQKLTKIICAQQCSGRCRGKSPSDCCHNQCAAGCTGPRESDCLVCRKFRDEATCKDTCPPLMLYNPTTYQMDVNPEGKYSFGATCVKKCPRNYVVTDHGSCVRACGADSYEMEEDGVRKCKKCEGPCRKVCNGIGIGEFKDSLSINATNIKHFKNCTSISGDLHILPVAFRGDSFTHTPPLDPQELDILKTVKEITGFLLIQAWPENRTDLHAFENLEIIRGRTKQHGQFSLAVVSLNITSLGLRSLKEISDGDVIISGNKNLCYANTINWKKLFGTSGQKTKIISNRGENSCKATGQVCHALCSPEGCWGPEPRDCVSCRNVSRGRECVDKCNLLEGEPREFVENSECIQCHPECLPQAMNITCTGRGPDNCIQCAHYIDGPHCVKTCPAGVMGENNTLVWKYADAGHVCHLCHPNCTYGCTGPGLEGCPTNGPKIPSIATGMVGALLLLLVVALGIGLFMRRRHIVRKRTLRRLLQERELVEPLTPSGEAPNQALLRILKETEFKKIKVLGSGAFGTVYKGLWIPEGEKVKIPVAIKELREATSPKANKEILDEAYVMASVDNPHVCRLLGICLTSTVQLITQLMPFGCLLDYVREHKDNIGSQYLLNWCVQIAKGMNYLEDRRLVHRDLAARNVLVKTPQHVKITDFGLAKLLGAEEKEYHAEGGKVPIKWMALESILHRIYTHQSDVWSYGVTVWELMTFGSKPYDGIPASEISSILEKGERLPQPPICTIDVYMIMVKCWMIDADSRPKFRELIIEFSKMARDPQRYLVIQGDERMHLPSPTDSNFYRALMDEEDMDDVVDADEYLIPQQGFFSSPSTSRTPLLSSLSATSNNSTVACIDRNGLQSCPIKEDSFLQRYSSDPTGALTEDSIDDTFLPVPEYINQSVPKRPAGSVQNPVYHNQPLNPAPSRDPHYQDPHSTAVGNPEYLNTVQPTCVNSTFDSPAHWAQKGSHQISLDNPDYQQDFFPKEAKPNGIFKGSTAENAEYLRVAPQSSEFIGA

T1 sequence (P04626 with tags, fused parts or gaps INS775YVMA): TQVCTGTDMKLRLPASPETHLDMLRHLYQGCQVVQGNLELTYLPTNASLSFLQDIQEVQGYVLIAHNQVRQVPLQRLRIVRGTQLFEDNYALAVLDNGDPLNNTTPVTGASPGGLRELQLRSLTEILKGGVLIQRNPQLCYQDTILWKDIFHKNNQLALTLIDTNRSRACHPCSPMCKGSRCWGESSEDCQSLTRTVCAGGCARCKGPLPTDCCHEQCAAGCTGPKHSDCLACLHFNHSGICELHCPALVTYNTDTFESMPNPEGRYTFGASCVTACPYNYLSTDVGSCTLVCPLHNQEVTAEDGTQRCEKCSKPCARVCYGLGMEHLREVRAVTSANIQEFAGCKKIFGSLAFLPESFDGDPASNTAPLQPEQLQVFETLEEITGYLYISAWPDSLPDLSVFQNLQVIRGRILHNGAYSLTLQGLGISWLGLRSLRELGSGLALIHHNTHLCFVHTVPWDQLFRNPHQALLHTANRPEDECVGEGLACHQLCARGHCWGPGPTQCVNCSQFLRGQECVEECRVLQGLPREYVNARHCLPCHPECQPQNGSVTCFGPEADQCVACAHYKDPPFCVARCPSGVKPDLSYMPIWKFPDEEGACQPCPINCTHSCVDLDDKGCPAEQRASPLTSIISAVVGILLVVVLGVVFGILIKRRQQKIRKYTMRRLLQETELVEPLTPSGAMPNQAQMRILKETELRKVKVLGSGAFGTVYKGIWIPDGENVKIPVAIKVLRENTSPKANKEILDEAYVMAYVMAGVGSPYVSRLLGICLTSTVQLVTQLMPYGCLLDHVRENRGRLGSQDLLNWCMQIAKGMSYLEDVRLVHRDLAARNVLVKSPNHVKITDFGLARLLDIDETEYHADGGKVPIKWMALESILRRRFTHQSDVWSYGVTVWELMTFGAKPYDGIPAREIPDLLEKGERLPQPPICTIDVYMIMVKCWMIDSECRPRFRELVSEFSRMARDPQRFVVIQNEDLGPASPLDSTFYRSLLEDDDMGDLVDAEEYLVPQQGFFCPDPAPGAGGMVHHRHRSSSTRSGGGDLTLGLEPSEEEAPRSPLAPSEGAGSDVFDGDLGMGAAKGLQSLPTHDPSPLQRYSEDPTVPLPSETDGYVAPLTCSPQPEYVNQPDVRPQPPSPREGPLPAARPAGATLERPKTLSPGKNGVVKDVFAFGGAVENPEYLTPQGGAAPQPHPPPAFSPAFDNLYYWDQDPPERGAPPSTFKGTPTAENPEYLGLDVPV
Chain of EGFR T790M L858R (P00533 25-1210 T790M/L858R): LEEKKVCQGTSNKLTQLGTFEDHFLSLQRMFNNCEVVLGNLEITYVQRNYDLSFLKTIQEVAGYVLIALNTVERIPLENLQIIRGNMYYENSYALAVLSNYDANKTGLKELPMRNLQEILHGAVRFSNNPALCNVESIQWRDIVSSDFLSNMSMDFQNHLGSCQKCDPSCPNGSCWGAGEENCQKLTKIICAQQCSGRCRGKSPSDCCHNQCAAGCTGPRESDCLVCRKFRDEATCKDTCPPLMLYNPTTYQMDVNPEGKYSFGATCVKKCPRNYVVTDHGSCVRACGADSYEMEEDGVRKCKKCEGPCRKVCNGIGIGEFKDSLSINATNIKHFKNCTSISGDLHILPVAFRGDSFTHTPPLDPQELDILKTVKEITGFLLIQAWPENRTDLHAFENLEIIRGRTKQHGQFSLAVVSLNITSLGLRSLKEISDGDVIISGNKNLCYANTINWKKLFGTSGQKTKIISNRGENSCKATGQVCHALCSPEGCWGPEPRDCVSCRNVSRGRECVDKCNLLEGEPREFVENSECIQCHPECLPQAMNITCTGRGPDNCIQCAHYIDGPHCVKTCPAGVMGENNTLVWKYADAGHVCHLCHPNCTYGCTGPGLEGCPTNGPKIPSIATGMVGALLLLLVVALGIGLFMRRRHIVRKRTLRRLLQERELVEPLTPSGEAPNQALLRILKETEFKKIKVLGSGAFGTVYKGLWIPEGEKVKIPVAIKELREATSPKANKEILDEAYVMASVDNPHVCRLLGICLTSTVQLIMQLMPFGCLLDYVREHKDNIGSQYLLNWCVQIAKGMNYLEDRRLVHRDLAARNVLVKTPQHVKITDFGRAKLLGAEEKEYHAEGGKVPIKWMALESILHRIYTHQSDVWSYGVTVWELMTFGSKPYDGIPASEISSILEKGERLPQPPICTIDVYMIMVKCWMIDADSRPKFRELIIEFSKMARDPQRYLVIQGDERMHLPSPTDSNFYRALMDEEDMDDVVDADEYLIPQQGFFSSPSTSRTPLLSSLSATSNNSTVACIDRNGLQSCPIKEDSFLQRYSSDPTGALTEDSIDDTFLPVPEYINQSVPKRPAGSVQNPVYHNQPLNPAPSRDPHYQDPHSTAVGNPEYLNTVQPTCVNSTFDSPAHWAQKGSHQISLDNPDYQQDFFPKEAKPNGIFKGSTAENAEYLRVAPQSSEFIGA

C=CC(=O)Nc1cc(-c2c(-c3cnn(C)c3)[nH]c3ncc(C(=O)OC(C)C)cc23)cc(F)c1C [Example 2, Isopropyl 3-(3-acrylamido-5-fluoro-4-methylphenyl)-2-(1-methyl-1H-pyrazol-4-yl)-1H-pyrrolo[2,3-b]pyridine-5-carboxylate 2,2,2-trifluoroacetate]
IC50 [1]: 100 to 500 nM | IC50 [2]: 100 to 500 nM | IC50 [3]: ≤ 50 nM | IC50 [4]: ≤ 50 nM | IC50 [5]: 100 to 500 nM | IC50 [6]: 1000 to 10000 nM | IC50 [7]: ≤ 50 nM | IC50 [8]: 100 to 500 nM | IC50 [9]: ≤ 50 nM

C=CC(=O)Nc1cc(-c2c(-c3cnn(C)c3)[nH]c3ncc(OCC)cc23)cc(F)c1C [Example 3, N-(5-(5-ethoxy-2-(1-methyl-1H-pyrazol-4-yl)-1H-pyrrolo[2,3-b]pyridin-3-yl)-3-fluoro-2-methylphenyl)acrylamide 2,2,2-trifluoroacetate]
IC50 [1]: 100 to 500 nM | IC50 [2]: 50 to 100 nM | IC50 [3]: ≤ 50 nM | IC50 [4]: ≤ 50 nM | IC50 [5]: ≤ 50 nM | IC50 [6]: 1000 to 10000 nM | IC50 [7]: ≤ 50 nM | IC50 [8]: 100 to 500 nM | IC50 [9]: ≤ 50 nM

C=CC(=O)Nc1cc(-c2c(-c3cnn(CC)c3)[nH]c3ncc(C(=O)OC(C)C)cc23)ccc1C [Example 6, isopropyl 3-(3-acrylamido-4-methylphenyl)-2-(1-ethyl-1H-pyrazol-4-yl)-1H-pyrrolo[2,3-b]pyridine-5-carboxylate]
IC50 [1]: 100 to 500 nM | IC50 [2]: 100 to 500 nM | IC50 [3]: ≤ 50 nM | IC50 [4]: ≤ 50 nM | IC50 [5]: 500 to 1000 nM | IC50 [6]: 1000 to 10000 nM | IC50 [7]: 100 to 500 nM | IC50 [8]: 500 to 1000 nM | IC50 [9]: ≤ 50 nM

C=CC(=O)Nc1cc(-c2c(-c3cnn(CC)c3)[nH]c3ncc(C(=O)OC(C)C)c(C)c23)ccc1C [Example 8, isopropyl 3-(3-acrylamido-4-methylphenyl)-2-(1-ethyl-1 H-pyrazol-4-yl)-4-methyl-1 H-pyrrolo[2,3-b]pyridine-5-carboxylate]
IC50 [1]: 100 to 500 nM | IC50 [2]: ≤ 50 nM | IC50 [3]: ≤ 50 nM | IC50 [4]: ≤ 50 nM | IC50 [5]: 100 to 500 nM | IC50 [6]: 1000 to 10000 nM | IC50 [7]: 100 to 500 nM | IC50 [8]: 100 to 500 nM | IC50 [9]: ≤ 50 nM

C=CC(=O)Nc1cc(-c2c(-c3cnn(Cc4ccccc4)c3)[nH]c3ncc(C(=O)OC(C)C)c(C)c23)ccc1C [Example 9, isopropyl 3-(3-acrylamido-4-methylphenyl)-2-(1-benzyl-1 H-pyrazol-4-yl)-4-methyl-1 H-pyrrolo[2,3-b]pyridine-5-carboxylate]
IC50 [1]: 500 to 1000 nM | IC50 [2]: 100 to 500 nM | IC50 [3]: 500 to 1000 nM | IC50 [4]: 100 to 500 nM | IC50 [5]: 500 to 1000 nM | IC50 [6]: 1000 to 10000 nM | IC50 [7]: 100 to 500 nM | IC50 [8]: 500 to 1000 nM | IC50 [9]: ≤ 50 nM

C=CC(=O)Nc1cc(-c2c(-c3cnn(C4CC4)c3)[nH]c3ncc(C(=O)OC(C)C)c(C)c23)ccc1C [Example 10, isopropyl 3-(3-acrylamido-4-methylphenyl)-2-(1-cyclopropyl-1 H-pyrazol-4-yl)-4-methyl-1 H-pyrrolo[2,3-b]pyridine-5-carboxylate]
IC50 [1]: 100 to 500 nM | IC50 [2]: 50 to 100 nM | IC50 [3]: 50 to 100 nM | IC50 [4]: 50 to 100 nM | IC50 [5]: 100 to 500 nM | IC50 [6]: 1000 to 10000 nM | IC50 [7]: 100 to 500 nM | IC50 [8]: 500 to 1000 nM | IC50 [9]: ≤ 50 nM

C=CC(=O)Nc1cc(-c2c(-c3cnn(CCOC)c3)[nH]c3ncc(C(=O)OC(C)C)c(C)c23)ccc1C [Example 11, isopropyl 3-(3-acrylamido-4-methylphenyl)-2-(1-(2-methoxyethyl)-1 H-pyrazol-4-yl)-4-methyl-1 H-pyrrolo[2,3-b]pyridine-5-carboxylate]
IC50 [1]: 100 to 500 nM | IC50 [2]: 100 to 500 nM | IC50 [3]: ≤ 50 nM | IC50 [4]: ≤ 50 nM | IC50 [5]: 100 to 500 nM | IC50 [6]: 1000 to 10000 nM | IC50 [7]: 100 to 500 nM | IC50 [8]: 500 to 1000 nM | IC50 [9]: ≤ 50 nM

C=CC(=O)Nc1cc(-c2c(-c3cnn(C)c3)[nH]c3ncc(O[C@@H](C)CC)cc23)ccc1C [Example 12, (S)-N-(5-(5-(sec-butoxy)-2-(1-methyl-1H-pyrazol-4-yl)-1H-pyrrolo[2,3-b]pyridin-3-yl)-2-methylphenyl)acrylamide 2,2,2-trifluoroacetate]
IC50 [1]: 100 to 500 nM | IC50 [2]: 100 to 500 nM | IC50 [3]: ≤ 50 nM | IC50 [4]: ≤ 50 nM | IC50 [5]: 100 to 500 nM | IC50 [6]: 1000 to 10000 nM | IC50 [7]: 100 to 500 nM | IC50 [8]: 500 to 1000 nM | IC50 [9]: ≤ 50 nM

C=CC(=O)Nc1cc(-c2c(-c3cnn(C(C)C)c3)[nH]c3ncc(C(=O)OC(C)C)c(C)c23)ccc1C [Example 13, isopropyl 3-(3-acrylamido-4-methylphenyl)-2-(1-isopropyl-1 H-pyrazol-4-yl)-4-methyl-1H-pyrrolo[2,3-b]pyridine-5-carboxylate]
IC50 [1]: 100 to 500 nM | IC50 [2]: ≤ 50 nM | IC50 [3]: 100 to 500 nM | IC50 [4]: 50 to 100 nM | IC50 [5]: 100 to 500 nM | IC50 [6]: 1000 to 10000 nM | IC50 [7]: 100 to 500 nM | IC50 [8]: 100 to 500 nM | IC50 [9]: ≤ 50 nM

C=CC(=O)Nc1cc(-c2c(-c3cnn(CCC)c3)[nH]c3ncc(C(=O)OC(C)C)c(C)c23)ccc1C [Example 14, isopropyl 3-(3-acrylamido-4-methylphenyl)-4-methyl-2-(1-propyl-1 H-pyrazol-4-yl)-1H-pyrrolo[2,3-b]pyridine-5-carboxylate]
IC50 [1]: 100 to 500 nM | IC50 [2]: 50 to 100 nM | IC50 [3]: 100 to 500 nM | IC50 [4]: 50 to 100 nM | IC50 [5]: 100 to 500 nM | IC50 [6]: 1000 to 10000 nM | IC50 [7]: 100 to 500 nM | IC50 [8]: 100 to 500 nM | IC50 [9]: ≤ 50 nM

C=CC(=O)Nc1cc(-c2c(-c3cnn(C4CCC4)c3)[nH]c3ncc(C(=O)OC(C)C)c(C)c23)ccc1C [Example 16, isopropyl 3-(3-acrylamido-4-methylphenyl)-2-(1-cyclobutyl-1 H-pyrazol-4-yl)-4-methyl-1H-pyrrolo[2,3-b]pyridine-5-carboxylate]
IC50 [1]: 100 to 500 nM | IC50 [2]: 100 to 500 nM | IC50 [3]: 500 to 1000 nM | IC50 [4]: 100 to 500 nM | IC50 [5]: 500 to 1000 nM | IC50 [6]: 1000 to 10000 nM | IC50 [7]: 100 to 500 nM | IC50 [8]: 500 to 1000 nM | IC50 [9]: ≤ 50 nM

C=CC(=O)Nc1cc(-c2c(-c3cnn(CCN4CCOCC4)c3)[nH]c3ncc(C(=O)OC(C)C)c(C)c23)ccc1C [Example 17, isopropyl 3-(3-acrylamido-4-methylphenyl)-4-methyl-2-(1-(2-morpholinoethyl)-1 H-pyrazol-4-yl)-1 H-pyrrolo[2,3-b]pyridine-5-carboxylate]
IC50 [1]: 100 to 500 nM | IC50 [2]: 100 to 500 nM | IC50 [3]: ≤ 50 nM | IC50 [4]: ≤ 50 nM | IC50 [5]: 100 to 500 nM | IC50 [6]: 1000 to 10000 nM | IC50 [7]: 100 to 500 nM | IC50 [8]: 500 to 1000 nM | IC50 [9]: ≤ 50 nM

C=CC(=O)Nc1cc(-c2c(-c3cnn(C4COC4)c3)[nH]c3ncc(C(=O)OC(C)C)c(C)c23)ccc1C [Example 19, isopropyl 3-(3-acrylamido-4-methylphenyl)-4-methyl-2-(1-(oxetan-3-yl)-1 H-pyrazol-4-yl)-1 H-pyrrolo[2,3-b]pyridine-5-carboxylate]
IC50 [1]: 100 to 500 nM | IC50 [2]: ≤ 50 nM | IC50 [3]: ≤ 50 nM | IC50 [4]: ≤ 50 nM | IC50 [5]: 100 to 500 nM | IC50 [6]: 1000 to 10000 nM | IC50 [7]: 100 to 500 nM | IC50 [8]: 100 to 500 nM | IC50 [9]: ≤ 50 nM
